Assay results: patent publication EP4660185A1, “NAV1.7- AND/OR NAV1.8-INHIBITING AMIDES, PROCESSES FOR THE PREPARATION THEREOF, COMPOSITIONS, USES, METHODS FOR TREATMENT USING SAME, AND KITS” (Eurofarma Laboratórios S.A., priority 2023, dated 2024)

Columns and labels:
[1] = molecular target: T1, human sodium channels Nav 1.7 (Homo sapiens, UniProt Q15858); assay: Automated whole-cell voltage-clamp (ScreenPatch 384P) sodium current block, Nav 1.7; assay type: cell-based; settings: CHO cells stably expressing human Nav 1.7; holding -100 mV, inactivation step -40 mV for 8 seconds, test step 0 mV (TP1A); exposure at least five minutes, room temperature; mean where tested in two or more assays; read-out: Nav1.7 IC50
T1 construct: expressed in transfected cells
Procedure: (§1) Biological assays were performed on Chinese hamster ovary (CHO) cells that express human sodium channels Nav 1.8 or Nav 1.7 in a stable manner.
(§2) The experimental protocol voltage-clamp using the whole cell configuration was established on the automated ScreenPatch® 384P platform (SP384PE, Nanion Technologies, Livingston, NJ) and the results were recorded with a Nanion 384-well Patch Clamp chip (NPC) (Nanion Technologies, Livingston, NJ).
(§3) Compounds of Formula Ia and Formula Ib were diluted in eight concentrations in the extracellular solution composed of saline solution, buffered with HEPES (mM): NaCl, 137; KCl, 4; CaCl2, 3,8; MgCl2, 1; HEPES, 10; Glucose, 10; pH 7.4. The […], 50; CsF, 90; MgCl2, 5; EGTA, 5; HEPES, 10; pH 7.2. The duration of exposure of each compound with cells expressing Nav 1.7 or Nav 1.8 was at least five minutes, and the assays were performed at room temperature.
(§4) The measurements of the sodium currents of Nav 1.8 and Nav 1.7 were obtained using the voltage protocol described below: A holding voltage of -100 mV was established followed by an inactivation voltage step at -40 mV for 8 seconds, followed by a step of -100 mV for 20 ms, followed by a 20 ms step for 10 mV for Nav 1.8 or 0 mV for Nav 1.7 (TP1A) before returning to the holding voltage of -100 mV.
(§5) The protocol was repeated at a frequency of 0.05 Hz and the amplitude of the current was quantified throughout the recording of the TP1A phase. The variation in the amplitude of the peak current was evaluated according to the formula described below, after exposing the cells expressing the channels to each concentration of the different compounds: % Block = (1−(ITP1A,molecule/ITP1A,basal)×100%, [formula] wherein ITP1A,basal and ITP1A,molecule represent the peaks of sodium current input into TP1A before exposure to the compound and in the presence of the compound, respectively.
(§6) Data were obtained by nonlinear regression (nonlinear least squares) with XLfit for Excel (Microsoft, Redmond, WA).
(§7) The compounds were tested in at least one assay to obtain the value of CI50. For compounds that were tested in two or more assays, the results are described as the mean of the CI50 values.

[2] = molecular target: T2, human sodium channels Nav 1.8 (Homo sapiens, UniProt Q9Y5Y9); assay: Automated whole-cell voltage-clamp (ScreenPatch 384P) sodium current block, Nav 1.8; assay type: cell-based; settings: CHO cells stably expressing human Nav 1.8; holding -100 mV, inactivation step -40 mV for 8 seconds, test step 10 mV (TP1A); exposure at least five minutes, room temperature; mean where tested in two or more assays; read-out: Nav1.8 IC50
T2 construct: expressed in transfected cells
Procedure: as §1, §2, §3, §4, §5, §6, §7

T2 sequence (Q9Y5Y9 whole entry): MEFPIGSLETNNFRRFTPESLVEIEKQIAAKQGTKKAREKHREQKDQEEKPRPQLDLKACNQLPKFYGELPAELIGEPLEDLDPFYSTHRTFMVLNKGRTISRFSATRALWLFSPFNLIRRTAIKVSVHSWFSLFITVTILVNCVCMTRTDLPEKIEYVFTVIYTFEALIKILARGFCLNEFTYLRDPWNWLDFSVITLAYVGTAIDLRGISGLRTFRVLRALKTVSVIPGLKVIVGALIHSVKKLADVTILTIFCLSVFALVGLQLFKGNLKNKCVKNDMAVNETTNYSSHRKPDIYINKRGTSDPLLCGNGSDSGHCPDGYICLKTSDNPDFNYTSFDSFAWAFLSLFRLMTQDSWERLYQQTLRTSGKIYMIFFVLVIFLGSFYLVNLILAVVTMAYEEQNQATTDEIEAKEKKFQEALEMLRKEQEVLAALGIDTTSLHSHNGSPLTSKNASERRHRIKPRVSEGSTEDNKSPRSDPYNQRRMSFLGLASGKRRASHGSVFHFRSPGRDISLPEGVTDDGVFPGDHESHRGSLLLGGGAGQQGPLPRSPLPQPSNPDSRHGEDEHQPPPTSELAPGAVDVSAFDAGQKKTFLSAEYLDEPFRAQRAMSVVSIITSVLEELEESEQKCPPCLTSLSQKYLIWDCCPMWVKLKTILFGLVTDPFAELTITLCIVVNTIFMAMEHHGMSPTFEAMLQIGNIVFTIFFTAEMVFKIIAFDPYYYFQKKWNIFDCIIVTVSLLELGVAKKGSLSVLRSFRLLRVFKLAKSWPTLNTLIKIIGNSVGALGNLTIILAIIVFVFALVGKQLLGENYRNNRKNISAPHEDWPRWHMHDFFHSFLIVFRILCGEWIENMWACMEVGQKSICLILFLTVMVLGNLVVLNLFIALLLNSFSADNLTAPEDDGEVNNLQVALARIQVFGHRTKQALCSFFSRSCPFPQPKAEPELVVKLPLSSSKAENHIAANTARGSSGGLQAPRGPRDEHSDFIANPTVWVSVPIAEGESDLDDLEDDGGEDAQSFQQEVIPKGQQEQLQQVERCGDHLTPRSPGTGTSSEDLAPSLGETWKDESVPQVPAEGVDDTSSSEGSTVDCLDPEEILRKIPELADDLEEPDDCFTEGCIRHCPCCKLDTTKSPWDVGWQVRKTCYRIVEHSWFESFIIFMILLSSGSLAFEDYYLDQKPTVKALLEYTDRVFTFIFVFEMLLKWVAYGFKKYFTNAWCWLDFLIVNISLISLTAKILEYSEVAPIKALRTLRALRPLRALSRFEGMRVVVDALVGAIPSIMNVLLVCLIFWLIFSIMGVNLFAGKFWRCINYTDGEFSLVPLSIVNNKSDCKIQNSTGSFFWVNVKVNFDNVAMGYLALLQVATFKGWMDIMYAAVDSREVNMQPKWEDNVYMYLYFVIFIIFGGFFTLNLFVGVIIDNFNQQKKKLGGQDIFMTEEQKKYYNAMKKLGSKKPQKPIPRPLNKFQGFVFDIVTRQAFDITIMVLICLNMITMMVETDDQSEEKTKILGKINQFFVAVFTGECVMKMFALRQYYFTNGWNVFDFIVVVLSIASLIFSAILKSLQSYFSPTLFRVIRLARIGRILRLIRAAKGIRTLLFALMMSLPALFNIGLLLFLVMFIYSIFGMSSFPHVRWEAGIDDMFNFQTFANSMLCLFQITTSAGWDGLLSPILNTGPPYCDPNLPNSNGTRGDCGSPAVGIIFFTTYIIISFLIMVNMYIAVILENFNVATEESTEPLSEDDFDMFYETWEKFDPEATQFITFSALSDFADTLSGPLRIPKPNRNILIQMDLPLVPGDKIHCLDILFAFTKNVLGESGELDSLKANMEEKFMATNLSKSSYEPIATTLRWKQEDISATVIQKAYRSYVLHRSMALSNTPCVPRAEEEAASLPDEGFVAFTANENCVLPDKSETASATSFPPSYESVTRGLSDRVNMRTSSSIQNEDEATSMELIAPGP
T1 sequence (Q15858 whole entry): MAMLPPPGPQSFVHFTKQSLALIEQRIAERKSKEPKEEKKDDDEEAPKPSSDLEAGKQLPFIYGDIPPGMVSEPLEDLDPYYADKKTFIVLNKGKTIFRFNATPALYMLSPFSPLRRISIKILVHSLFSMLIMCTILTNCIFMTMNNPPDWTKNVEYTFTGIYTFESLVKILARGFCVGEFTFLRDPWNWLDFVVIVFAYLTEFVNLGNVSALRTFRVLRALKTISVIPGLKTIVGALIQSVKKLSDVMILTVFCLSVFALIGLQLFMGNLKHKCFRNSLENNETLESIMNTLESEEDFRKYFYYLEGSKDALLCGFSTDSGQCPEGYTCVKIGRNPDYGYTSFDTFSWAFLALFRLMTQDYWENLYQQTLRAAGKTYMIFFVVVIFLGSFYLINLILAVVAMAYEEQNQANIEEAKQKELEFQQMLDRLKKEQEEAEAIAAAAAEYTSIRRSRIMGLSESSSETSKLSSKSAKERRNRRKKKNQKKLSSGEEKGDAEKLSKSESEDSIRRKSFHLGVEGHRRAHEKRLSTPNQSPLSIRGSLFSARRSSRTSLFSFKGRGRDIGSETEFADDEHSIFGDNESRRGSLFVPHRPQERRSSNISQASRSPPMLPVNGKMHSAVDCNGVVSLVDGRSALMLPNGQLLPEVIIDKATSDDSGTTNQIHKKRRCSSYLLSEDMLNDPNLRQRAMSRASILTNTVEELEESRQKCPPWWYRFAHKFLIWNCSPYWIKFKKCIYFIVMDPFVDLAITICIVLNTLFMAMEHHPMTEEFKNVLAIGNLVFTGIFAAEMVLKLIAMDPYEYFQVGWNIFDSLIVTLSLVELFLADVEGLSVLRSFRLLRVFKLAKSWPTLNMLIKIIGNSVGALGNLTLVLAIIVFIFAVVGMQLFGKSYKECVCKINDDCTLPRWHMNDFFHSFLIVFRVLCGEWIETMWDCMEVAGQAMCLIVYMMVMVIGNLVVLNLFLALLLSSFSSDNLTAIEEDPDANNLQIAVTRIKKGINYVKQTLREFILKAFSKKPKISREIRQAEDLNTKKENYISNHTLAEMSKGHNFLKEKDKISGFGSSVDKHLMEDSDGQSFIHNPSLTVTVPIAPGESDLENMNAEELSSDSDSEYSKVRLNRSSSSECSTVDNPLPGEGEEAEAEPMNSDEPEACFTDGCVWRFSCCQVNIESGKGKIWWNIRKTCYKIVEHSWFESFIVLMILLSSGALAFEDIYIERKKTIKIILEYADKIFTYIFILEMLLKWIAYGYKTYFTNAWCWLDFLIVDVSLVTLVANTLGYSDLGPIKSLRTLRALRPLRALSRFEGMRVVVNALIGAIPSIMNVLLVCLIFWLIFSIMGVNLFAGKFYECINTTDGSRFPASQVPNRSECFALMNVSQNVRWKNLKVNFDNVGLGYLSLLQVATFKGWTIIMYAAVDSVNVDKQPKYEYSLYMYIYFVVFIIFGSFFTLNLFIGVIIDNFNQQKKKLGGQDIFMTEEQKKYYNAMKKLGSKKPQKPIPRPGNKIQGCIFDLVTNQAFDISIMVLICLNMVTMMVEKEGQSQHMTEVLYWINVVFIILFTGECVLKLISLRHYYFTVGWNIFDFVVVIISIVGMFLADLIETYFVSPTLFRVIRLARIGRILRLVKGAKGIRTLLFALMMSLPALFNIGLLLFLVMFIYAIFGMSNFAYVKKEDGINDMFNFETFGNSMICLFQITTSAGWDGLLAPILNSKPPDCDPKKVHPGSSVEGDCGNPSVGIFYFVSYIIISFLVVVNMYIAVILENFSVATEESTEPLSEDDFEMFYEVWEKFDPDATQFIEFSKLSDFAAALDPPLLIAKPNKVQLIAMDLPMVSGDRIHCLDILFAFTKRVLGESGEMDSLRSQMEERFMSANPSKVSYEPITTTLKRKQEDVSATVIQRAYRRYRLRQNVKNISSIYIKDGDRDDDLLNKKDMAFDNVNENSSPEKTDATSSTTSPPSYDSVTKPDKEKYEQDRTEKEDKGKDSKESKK

Structure (SMILES): CCOc1ccc(-c2cncc(C(=O)NCCc3ccccc3F)n2)cc1 [compound 6]
- IC50 [1]: < 0.5 µM
- IC50 [2]: < 0.5 µM

Structure (SMILES): CCOc1ccc(-c2cncc(C(=O)N(C)c3cc4c(F)ccc(OC)c4[nH]3)n2)cn1 [compound 71]
- IC50 [1]: > 1 µM
- IC50 [2]: > 1 µM

Structure (SMILES): CCOc1ccc(-c2cncc(C(=O)NC[C@H](C)c3cc(OC)cc(OC)c3)n2)cc1 [compound 22]
- IC50 [1]: > 1 µM
- IC50 [2]: < 0.5 µM

Structure (SMILES): COc1cnc(F)c(CCNC(=O)c2cncc(-c3ccc(C(C)(C)O)cc3)n2)c1 [compound 56]
- IC50 [1]: > 1 µM
- IC50 [2]: > 1 µM

Structure (SMILES): CCOc1ccc(-c2cncc(C(=O)Nc3cc4c(F)ccc(OC)c4[nH]3)n2)cc1 [compound 76]
- IC50 [1]: > 1 µM
- IC50 [2]: > 1 µM

Structure (SMILES): COc1cnc(F)c(CCNC(=O)c2cncc(-c3ccc(OC)nc3)n2)c1 [compound 53]
- IC50 [1]: 0.5 to 1 µM
- IC50 [2]: < 0.5 µM

Structure (SMILES): COc1cnc(F)c(CCNC(=O)c2cncc(-c3ccc(C(C)(C)O)nc3)n2)c1 [compound 57]
- IC50 [1]: > 1 µM
- IC50 [2]: > 1 µM

Structure (SMILES): CCOc1ccc(-c2cncc(C(=O)Nc3cn4c(F)ccc(OC)c4n3)n2)cn1 [compound 63]
- IC50 [1]: > 1 µM
- IC50 [2]: > 1 µM

Structure (SMILES): CCOc1ccc(-c2cncc(C(=O)NCCc3cc(C(C)O)ccc3F)n2)cn1 (stereo not shown) [compound 43]
- IC50 [1]: 0.5 to 1 µM
- IC50 [2]: < 0.5 µM

Structure (SMILES): CCOc1ccc(-c2cncc(C(=O)Nc3cc4c(OC)ccc(F)c4[nH]3)n2)cc1 [compound 77]
- IC50 [1]: > 1 µM
- IC50 [2]: > 1 µM

Structure (SMILES): CCOc1ccc(-c2cncc(C(=O)NCCc3cc(OC)cnc3C)n2)cc1 [compound 18]
- IC50 [1]: > 1 µM
- IC50 [2]: < 0.5 µM

Structure (SMILES): CCOc1cc(C)c(-c2cncc(C(=O)NCCc3cc(OC)cc(OC)c3)n2)cn1 [compound 30]
- IC50 [1]: > 1 µM
- IC50 [2]: > 1 µM

Structure (SMILES): CCOc1ccc(-c2cncc(C(=O)NCCc3cc(OC)ccc3F)n2)cc1 [compound 17]
- IC50 [1]: 0.5 to 1 µM
- IC50 [2]: < 0.5 µM

Structure (SMILES): COc1cc(CCNC(=O)c2cncc(-c3ccc(OC(C)C)nc3)n2)cc(OC)c1 [compound 28]
- IC50 [1]: 0.5 to 1 µM
- IC50 [2]: < 0.5 µM

Structure (SMILES): COc1cc(CCNC(=O)c2cncc(-c3ccc(OC(C)C)cc3)n2)cc(OC)c1 [compound 1]
- IC50 [1]: > 1 µM
- IC50 [2]: 0.5 to 1 µM

Structure (SMILES): CCOc1ccc(-c2cncc(C(=O)Nc3cn4c(OC)ccc(F)c4n3)n2)cn1 [compound 68]
- IC50 [1]: > 1 µM
- IC50 [2]: > 1 µM

Structure (SMILES): O=C(NCCc1ccccc1F)c1cncc(-c2ccc(OC(F)F)nc2)n1 [compound 47]
- IC50 [1]: > 1 µM
- IC50 [2]: > 1 µM

Structure (SMILES): CCOc1ccc(-c2cc(C(=O)NCCc3cc(OC)cnc3F)cnn2)cc1 [compound 100]
- IC50 [1]: > 1 µM
- IC50 [2]: > 1 µM

Structure (SMILES): CCOc1ccc(-c2cncc(C(=O)Nc3nc4c(F)ccc(OC)c4o3)n2)cn1 [compound 65]
- IC50 [1]: > 1 µM
- IC50 [2]: > 1 µM

Structure (SMILES): COc1ccc(-c2cncc(C(=O)NC[C@@H](O)c3cc(OC)cc(OC)c3)n2)cc1 [compound 55]
- IC50 [1]: > 1 µM
- IC50 [2]: < 0.5 µM

Structure (SMILES): CCOc1ccc(-c2cncc(C(=O)N[C@@H]3CCc4c(OC)ccc(F)c4C3)n2)cn1 [compound 79]
- IC50 [1]: 0.5 to 1 µM
- IC50 [2]: 0.5 to 1 µM

Structure (SMILES): COc1cnc(F)c(CCNC(=O)c2cncc(-c3ccc(OC(F)F)cc3)n2)c1 [compound 50]
- IC50 [1]: > 1 µM
- IC50 [2]: > 1 µM

Structure (SMILES): [2H]C([2H])([2H])Oc1ccc(-c2cncc(C(=O)NCCc3ccccc3F)n2)cn1 [compound 89]
- IC50 [1]: > 1 µM
- IC50 [2]: < 0.5 µM

Structure (SMILES): CCOc1ccc(-c2cc(C(=O)NCCc3cc(OC)cnc3F)ccn2)cn1 [compound 109]
- IC50 [1]: > 1 µM
- IC50 [2]: > 1 µM

Structure (SMILES): CCOc1ccc(-c2cncc(C(=O)Nc3cc4c(OC)cccc4[nH]3)n2)cn1 [compound 73]
- IC50 [1]: > 1 µM
- IC50 [2]: > 1 µM

Structure (SMILES): CCOc1ccc(-c2cncc(C(=O)NCCc3cccc(OC)c3)n2)cc1 [compound 5]
- IC50 [1]: < 0.5 µM
- IC50 [2]: < 0.5 µM

Structure (SMILES): CCOc1ccc(-c2cncc(C(=O)N[C@H]3Cc4c(OC)cnc(F)c4C3)n2)cn1 [compound 83]
- IC50 [1]: > 1 µM
- IC50 [2]: > 1 µM

Structure (SMILES): CCOc1ccc(-c2cncc(C(=O)NCCc3cc(OC)cc(OC)c3)n2)cn1 [compound 44]
- IC50 [1]: > 1 µM
- IC50 [2]: > 1 µM

Structure (SMILES): CCOc1ccc(-c2cncc(C(=O)NCCc3cccc(C(C)O)c3)n2)cc1 (stereo not shown) [compound 13]
- IC50 [1]: > 1 µM
- IC50 [2]: < 0.5 µM

Structure (SMILES): CCOc1ccc(-c2cncc(C(=O)NCCc3cccc(C(C)O)c3)n2)cn1 (stereo not shown) [compound 41]
- IC50 [1]: > 1 µM
- IC50 [2]: > 1 µM

Structure (SMILES): CCOc1ccc(-c2cccc(C(=O)NCCc3cc(OC)cnc3F)n2)cn1 [compound 108]
- IC50 [1]: > 1 µM
- IC50 [2]: > 1 µM

Structure (SMILES): CCOc1ccc(-c2cncc(C(=O)Nc3cc4c(OC)cccc4[nH]3)n2)cc1 [compound 60]
- IC50 [1]: 0.5 to 1 µM
- IC50 [2]: < 0.5 µM

Structure (SMILES): CCOc1ccc(-c2cncc(C(=O)NCc3ncc4ccc(OC)cn34)n2)cn1 [compound 85]
- IC50 [1]: > 1 µM
- IC50 [2]: > 1 µM

Structure (SMILES): CCOc1ccc(-c2cncc(C(=O)NCCc3cccc(OC)c3)n2)cn1 [compound 45]
- IC50 [1]: 0.5 to 1 µM
- IC50 [2]: < 0.5 µM

Structure (SMILES): [2H]C([2H])([2H])Oc1ccc(-c2cncc(C(=O)NCCc3cc(OC)cnc3F)n2)cn1 [compound 90]
- IC50 [1]: > 1 µM
- IC50 [2]: > 1 µM

Structure (SMILES): CCOc1ccc(-c2cncc(C(=O)NCCc3cc(OC)cnc3F)c2)cc1 [compound 102]
- IC50 [1]: > 1 µM
- IC50 [2]: > 1 µM

Structure (SMILES): CCOc1ccc(-c2cncc(C(=O)NCCc3cc(OC)cnc3F)c2)cn1 [compound 113]
- IC50 [1]: > 1 µM
- IC50 [2]: > 1 µM

Structure (SMILES): CCOc1ccc(-c2cncc(C(=O)NC[C@@H](N)c3cc(OC)cc(OC)c3)n2)cc1 [compound 27]
- IC50 [1]: < 0.5 µM
- IC50 [2]: < 0.5 µM
